Reference: ChEMBL document CHEMBL1156732, “Identification of SVM-based classification model, synthesis and evaluation of prenylated flavonoids as vasorelaxant agents” (Bioorg Med Chem, 2008)

Legend:
Aorta [1] = experiment: Vasorelaxant activity against phenylephrine-induced contraction in Sprague-Dawley rat aorta relative to phenylephrine; type: functional
Aorta [2] = experiment: Vasorelaxant activity against phenylephrine-induced contraction in Sprague-Dawley rat aorta; type: functional, tissue-based

Row | EC50 (Aorta [2]) [µM] | Structure (SMILES) | Emax (Aorta [1]) [%]
1 | 64.3 | COc1cc(-c2cc(=O)c3c(O)cc(O)c(CC=C(C)C)c3o2)cc(OC)c1OC | 90.1
2 | 95.9 | CC(C)=CCc1c(O)cc(O)c2c(=O)cc(-c3cccc(Br)c3)oc12 | 82.8
3 | 4.21 | CC(C)=CCc1c(O)cc(O)c(C(=O)/C=C/c2ccc3c(c2)OCO3)c1O | 90
4 |  | COc1cc(/C=C/C(=O)c2c(O)cc(O)c(CC=C(C)C)c2O)cc(OC)c1OC | 78.5
5 | 679 | CC(C)=CCc1c(O)cc(O)c(C(=O)/C=C/c2ccc(Cl)cc2)c1O | 64.4
6 |  | CC(C)=CCc1c(O)cc(O)c2c(=O)cc(-c3cccc(O)c3)oc12 | 64.6
7 | 49.3 | COc1cc(-c2cc(=O)c3c(O)cc(O)c(CC=C(C)C)c3o2)ccc1O | 70.6
8 | 1.32 | CC(C)=CCc1c(O)cc(O)c2c1OC(c1ccc3c(c1)OCO3)CC2=O (racemic) | 77.3
9 | 1.56 | CC(C)=CCc1c(O)cc(O)c2c1OC(c1cccc(Br)c1)CC2=O (racemic) | 78.2
10 | 10.1 | COc1cc(C2CC(=O)c3c(O)cc(O)c(CC=C(C)C)c3O2)ccc1O (racemic) | 95.8
11 | 5.79 | CC(C)=CCc1c(O)cc(O)c2c1OC(c1ccccc1)CC2=O (racemic) | 122
